# Test results taken from patent US9120779B2, “Inhibitors of HCV NS5A” (PRESIDIO PHARMACEUTICALS, INC., priority 2008, dated 2015).
# Tested on: HCV genotype 1b replicon in Huh 7 cells
# Test: HCV replicon assay (luciferase readout, 1b_Huh-Luc/Neo-ET cell line)
# Assay type: cell-based
# Details: Hepatitis C virus, Huh-7, 72 h, read-out: Inhibition of HCV genotype 1b, Table 4, 72 h incubation
# How it was run: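 Huh 7 cells carrying a bicistronic genotype 1b luciferase replicon treated with compound in triplicate for 72 h. Replicon level read as luciferase activity (Bright-Glo), expressed as % of control; EC50 from a sigmoidal Hill-slope fit, repeated several times.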
row,SMILES,EC50 [nM]
1,COC(=O)N[C@H](C(=O)N1CCC[C@H]1c1nc2ccc(-c3ccc(-c4ccc5nc([C@@H]6CCCN6C(=O)[C@@H](NC(=O)OC)C6CCOCC6)[nH]c5c4)cc3)cc2[nH]1)C(C)C [compound 2040],< 1

# Same assay, conditions: Hepatitis C virus, Huh-7, 72 h, read-out: Inhibition of HCV genotype 1b, Table 5, 72 h incubation
row,SMILES,EC50 [nM]
1,COC(=O)N[C@H](C(=O)N1CCC[C@H]1c1ncc(-c2ccc(C34CCC(c5cnc([C@@H]6CCCN6C(=O)[C@@H](c6ccccc6)N(C)C)[nH]5)(CC3)CC4)cc2)[nH]1)C(C)C [compound 2051],< 1
2,COC(=O)N[C@@H](C(=O)N1CCC[C@H]1c1ncc(-c2ccc(C34CCC(c5cnc([C@@H]6CCCN6C(=O)[C@@H](NC(=O)N6CCOCC6)C(C)C)[nH]5)(CC3)CC4)cc2)[nH]1)c1ccccc1 [compound 2052],< 1
3,COC(=O)N[C@H](C(=O)N1CCC[C@H]1c1ncc(-c2ccc(C34CCC(c5cnc([C@@H]6CCCN6C(=O)[C@@H](NC(=O)OC6CCOCC6)C(C)C)[nH]5)(CC3)CC4)cc2)[nH]1)C(C)C [compound 2053],1 to 9.9
4,COC(=O)N[C@H](C(=O)N1CCC[C@H]1c1ncc(-c2ccc(C34CCC(c5cnc([C@@H]6CCCN6C(=O)[C@@H](NC6CCOCC6)C(C)C)[nH]5)(CC3)CC4)cc2)[nH]1)C(C)C [compound 2054],1 to 9.9
5,COC(=O)N[C@H](C(=O)N1CCC[C@H]1c1ncc(-c2ccc(C34CCC(c5cnc([C@@H]6CCCN6C(=O)[C@H](NC6CCOCC6)C(C)C)[nH]5)(CC3)CC4)cc2)[nH]1)C(C)C [compound 2055],< 1
6,COC(=O)N[C@H](C(=O)N1CCC[C@H]1c1ncc(-c2ccc(C34CCC(c5cnc([C@@H]6CCCN6C(=O)[C@H](C(C)C)N(C)C)[nH]5)(CC3)CC4)cc2)[nH]1)C(C)C [compound 2056],< 1
7,COC(=O)N[C@H](C(=O)N1CCC[C@H]1c1ncc(-c2ccc(C34CCC(c5cnc([C@@H]6CCCN6C(=O)[C@@H](C(C)C)N(C)C)[nH]5)(CC3)CC4)cc2)[nH]1)C(C)C [compound 2057],< 1
8,COC(=O)N[C@H](C(=O)N1CCC[C@H]1c1ncc(-c2ccc(C34CCC(c5cnc([C@@H]6CCCN6C(=O)[C@H](C(C)C)N6CCC(O)CC6)[nH]5)(CC3)CC4)cc2)[nH]1)C(C)C [compound 2058],< 1
9,COC(=O)N[C@H](C(=O)N1CCC[C@H]1c1ncc(-c2ccc(C34CCC(c5cnc([C@@H]6CCCN6C(=O)[C@@H](NC(=O)N6CCC(O)CC6)C(C)C)[nH]5)(CC3)CC4)cc2)[nH]1)C(C)C [compound 2059],< 1
10,COC(=O)N[C@H](C(=O)N1CCC[C@H]1c1ncc(-c2ccc(C34CCC(c5cnc([C@@H]6CCCN6C(=O)[C@@H](NC(=O)N6CCOCC6)C(C)C)[nH]5)(CC3)CC4)cc2)[nH]1)C(C)C [compound 2060],< 1
11,COC(=O)N[C@@H](C)C(=O)N1CCC[C@H]1c1ncc(C23CCC(c4ccc(-c5cnc([C@@H]6CCCN6C(=O)[C@@H](NC(=O)OC)C(C)C)[nH]5)cc4)(CC2)CC3)[nH]1 [compound 2061],< 1
12,COC(=O)N[C@H](C(=O)N1CCC[C@H]1c1ncc(-c2ccc(C34CCC(c5cnc([C@@H]6CCCN6C(=O)[C@@H](C)NC(=O)OC)[nH]5)(CC3)CC4)cc2)[nH]1)C(C)C [compound 2062],< 1
13,COC(=O)N[C@@H](C(=O)N1CCC[C@H]1c1ncc(-c2ccc(C34CCC(c5cnc([C@@H]6CCCN6C(=O)[C@H](C(C)C)N(C)C)[nH]5)(CC3)CC4)cc2)[nH]1)c1ccccc1 [compound 2063],< 1
14,COC(=O)N[C@H](C(=O)N1CCC[C@H]1c1ncc(-c2ccc(C34CCC(c5cnc([C@@H]6CCCN6C(=O)[C@H](NC6CCOCC6)c6ccccc6)[nH]5)(CC3)CC4)cc2)[nH]1)C(C)C [compound 2064],< 1
15,COC(=O)N[C@@H](CC(C)C)C(=O)N1CCC[C@H]1c1ncc(C23CCC(c4ccc(-c5cnc([C@@H]6CCCN6C(=O)[C@@H](NC(=O)OC)C(C)C)[nH]5)cc4)(CC2)CC3)[nH]1 [compound 2065],< 1
16,CC[C@H](C)[C@H](NC(=O)OC)C(=O)N1CCC[C@H]1c1ncc(C23CCC(c4ccc(-c5cnc([C@@H]6CCCN6C(=O)[C@@H](NC(=O)OC)C(C)C)[nH]5)cc4)(CC2)CC3)[nH]1 [compound 2066],< 1
